Test results: publication PMC5218480 (PLoS ONE, 2017)

System: MV-4-11 cells
Experiment: Gene expression microarray analysis (Affymetrix PrimeView) and GSEA
Assay type: cell-based, human
Design: RFU PODN (11730768_x_at) / Fold change /veh PODN (11730768_x_at) / RFU LINC00158 (11744669_a_at) / Fold change /veh LINC00158 (11744669_a_at) / RFU DUSP10 (11751237_a_at) / Fold change /veh DUSP10 (11751237_a_at) / RFU ID3 (11757404_x_at) / Fold change /veh ID3 (11757404_x_at) / RFU PLEKHG5 (11737974_s_at) / Fold change /veh PLEKHG5 (11737974_s_at) / RFU LRRC4B (11730491_at) / Fold change /veh LRRC4B (11730491_at) / RFU GIMAP4 (11747438_a_at) / Fold change /veh GIMAP4 (11747438_a_at) / RFU KRT8 (11758183_x_at) / Fold change /veh KRT8 (11758183_x_at) / RFU CNN1 (11734310_a_at) / Fold change /veh CNN1 (11734310_a_at) / RFU VPS37D (11726825_at) / Fold change /veh VPS37D (11726825_at) / RFU C10orf10 (11716522_x_at) / Fold change /veh C10orf10 (11716522_x_at) / RFU KIR2DL2 /// KIR2DL4 /// KIR2DL5A /// KIR2DL5B /// KIR2DS1 /// KIR2DS2 /// KIR2DS3 /// KIR2DS4 /// KIR3DL3 /// KIR3DL3 /// KIR3DS1 (11738374_at) / Fold change /veh KIR2DL2 /// KIR2DL4 /// KIR2DL5A /// KIR2DL5B /// KIR2DS1 /// KIR2DS2 /// KIR2DS3 /// KIR2DS4 /// KIR3DL3 /// KIR3DL3 /// KIR3DS1 (11738374_at) / RFU C1QL1 (11718748_at) / Fold change /veh C1QL1 (11718748_at) / RFU TMPRSS4 (11747572_a_at) / Fold change /veh TMPRSS4 (11747572_a_at) / RFU HAMP (11756126_x_at) / Fold change /veh HAMP (11756126_x_at) / RFU RNFT2 (11725882_a_at) / Fold change /veh RNFT2 (11725882_a_at) / RFU NR4A2 (11747474_a_at) / Fold change /veh NR4A2 (11747474_a_at) / RFU ABCC12 (11746883_a_at) / Fold change /veh ABCC12 (11746883_a_at) / RFU TMEM136 (11760407_x_at) / Fold change /veh TMEM136 (11760407_x_at) / RFU CLDN22 /// WWC2 (11732394_at) / Fold change /veh CLDN22 /// WWC2 (11732394_at) / RFU HLA-DPB1 (11760878_x_at) / Fold change /veh HLA-DPB1 (11760878_x_at) / RFU SPINT1 (11716480_a_at) / Fold change /veh SPINT1 (11716480_a_at) / RFU GAP43 (11754022_s_at) / Fold change /veh GAP43 (11754022_s_at) / RFU A4GNT (11735810_at) / Fold change /veh A4GNT (11735810_at) / RFU PRB3 (11715151_x_at) / Fold change /veh PRB3 (11715151_x_at) / RFU TUBB4B (11761932_at) / Fold change /veh TUBB4B (11761932_at) / RFU CAPN14 (11732068_a_at) / Fold change /veh CAPN14 (11732068_a_at) / RFU TMCC2 (11721928_a_at) / Fold change /veh TMCC2 (11721928_a_at) / RFU IRGQ (11745062_a_at) / Fold change /veh IRGQ (11745062_a_at) / RFU FAM174B (11720279_a_at) / Fold change /veh FAM174B (11720279_a_at) / RFU TMPRSS4 (11748680_a_at) / Fold change /veh TMPRSS4 (11748680_a_at) / RFU FAM212B (11763350_a_at) / Fold change /veh FAM212B (11763350_a_at) / RFU PLEKHG5 (11743358_a_at) / Fold change /veh PLEKHG5 (11743358_a_at) / RFU ZSCAN30 (11745921_a_at) / Fold change /veh ZSCAN30 (11745921_a_at) / RFU CMKLR1 (11741424_a_at) / Fold change /veh CMKLR1 (11741424_a_at) / RFU LOC101060620 /// MAPK8IP1 (11723275_at) / Fold change /veh LOC101060620 /// MAPK8IP1 (11723275_at) / RFU SPTSSB (11747773_x_at) / Fold change /veh SPTSSB (11747773_x_at) / RFU PRSS12 (11739890_at) / Fold change /veh PRSS12 (11739890_at) / RFU BIN1 (11741810_x_at) / Fold change /veh BIN1 (11741810_x_at) / RFU WNT11 (11732464_a_at) / Fold change /veh WNT11 (11732464_a_at) / RFU C10orf10 (11716521_a_at) / Fold change /veh C10orf10 (11716521_a_at) / RFU C5orf56 (11738089_at) / Fold change /veh C5orf56 (11738089_at) / RFU CYB561 (11721691_x_at) / Fold change /veh CYB561 (11721691_x_at) / RFU ANKRD19P (11752326_a_at) / Fold change /veh ANKRD19P (11752326_a_at) / RFU OR2T12 /// OR2T33 /// OR2T8 (11738714_s_at) / Fold change /veh OR2T12 /// OR2T33 /// OR2T8 (11738714_s_at) / RFU VCAN (11748164_a_at) / Fold change /veh VCAN (11748164_a_at) / RFU JSRP1 (11732532_at) / Fold change /veh JSRP1 (11732532_at) / RFU KRTAP10-11 (11738290_x_at) / Fold change /veh KRTAP10-11 (11738290_x_at) / RFU MYO3A (11730013_a_at) / Fold change /veh MYO3A (11730013_a_at) / RFU EBF3 (11725865_a_at) / Fold change /veh EBF3 (11725865_a_at) / RFU CAMK2N1 (11719241_x_at) / Fold change /veh CAMK2N1 (11719241_x_at) / RFU C5orf56 (11738088_a_at) / Fold change /veh C5orf56 (11738088_a_at) / RFU OLFML3 (11715873_a_at) / Fold change /veh OLFML3 (11715873_a_at) / RFU LOC100653217 /// NTM (11731650_a_at) / Fold change /veh LOC100653217 /// NTM (11731650_a_at) / RFU MAPK11 (11762145_a_at) / Fold change /veh MAPK11 (11762145_a_at) / RFU FIZ1 (11724087_x_at) / Fold change /veh FIZ1 (11724087_x_at) / RFU OASL (11726364_x_at) / Fold change /veh OASL (11726364_x_at) / RFU SOX15 (11748057_x_at) / Fold change /veh SOX15 (11748057_x_at) / RFU CD79A (11719716_a_at) / Fold change /veh CD79A (11719716_a_at) / RFU HIST1H1D (11736915_at) / Fold change /veh HIST1H1D (11736915_at) / RFU CASKIN2 (11723855_a_at) / Fold change /veh CASKIN2 (11723855_a_at) / RFU LOC730098 (11760151_x_at) / Fold change /veh LOC730098 (11760151_x_at) / RFU OR4N2 (11742367_at) / Fold change /veh OR4N2 (11742367_at) / RFU PRRT2 (11749266_a_at) / Fold change /veh PRRT2 (11749266_a_at) / RFU SNX32 (11753110_a_at) / Fold change /veh SNX32 (11753110_a_at) / RFU CDHR5 (11726645_a_at) / Fold change /veh CDHR5 (11726645_a_at) / RFU RCAN1 (11760418_a_at) / Fold change /veh RCAN1 (11760418_a_at) / RFU FAM167A (11723789_a_at) / Fold change /veh FAM167A (11723789_a_at) / RFU FAM26E (11764081_at) / Fold change /veh FAM26E (11764081_at) / RFU ISYNA1 (11749810_s_at) / Fold change /veh ISYNA1 (11749810_s_at) / RFU ACY1 (11761880_at) / Fold change /veh ACY1 (11761880_at) / RFU 11764098_at / Fold change /veh 11764098_at / RFU SAMD14 (11745864_x_at) / Fold change /veh SAMD14 (11745864_x_at) / RFU NPB (11741838_a_at) / Fold change /veh NPB (11741838_a_at) / RFU TMPRSS6 (11731388_a_at) / Fold change /veh TMPRSS6 (11731388_a_at) / RFU KRTAP10-2 (11738614_at) / Fold change /veh KRTAP10-2 (11738614_at) / RFU ARHGAP8 /// PRR5-ARHGAP8 (11727945_x_at) / Fold change /veh ARHGAP8 /// PRR5-ARHGAP8 (11727945_x_at) / RFU KRTAP5-7 /// NADSYN1 (11734609_at) / Fold change /veh KRTAP5-7 /// NADSYN1 (11734609_at) / RFU RASL12 (11751679_a_at) / Fold change /veh RASL12 (11751679_a_at) / RFU CDKN2B (11736163_a_at) / Fold change /veh CDKN2B (11736163_a_at) / RFU PRF1 (11729649_at) / Fold change /veh PRF1 (11729649_at) / RFU, ZNF638 /// ZNF638-IT1 / Fold change vs veh, ZNF638 /// ZNF638-IT1 / RFU, PANK3 / Fold change vs veh, PANK3 / RFU, SH3YL1 / Fold change vs veh, SH3YL1 / RFU, ZEB2 / Fold change vs veh, ZEB2 / RFU, NRIP1 / Fold change vs veh, NRIP1 / RFU, PTTG1IP / Fold change vs veh, PTTG1IP / RFU, CAPN2 / Fold change vs veh, CAPN2 / RFU, MED14 / Fold change vs veh, MED14 / RFU, SNORA58 / Fold change vs veh, SNORA58 / RFU, C1orf63 / Fold change vs veh, C1orf63 / RFU, LRRFIP1 / Fold change vs veh, LRRFIP1 / RFU, NDUFAF7 / Fold change vs veh, NDUFAF7 / RFU, SLC12A2 / Fold change vs veh, SLC12A2 / RFU, IBTK / Fold change vs veh, IBTK / RFU, ESF1 / Fold change vs veh, ESF1 / Fold change vs veh, TMEM50B / RFU, TAOK1 / Fold change vs veh, TAOK1 / RFU, ACBD3 / Fold change vs veh, ACBD3 / RFU, TMA16 / Fold change vs veh, TMA16 / RFU, RWDD3 / Fold change vs veh, RWDD3 / RFU, BCAT1 / Fold change vs veh, BCAT1 / RFU, EDEM3 / Fold change vs veh, EDEM3 / RFU, TMEM33 / Fold change vs veh, TMEM33 / RFU, WDR75 / Fold change vs veh, WDR75 / RFU, AHCTF1 / Fold change vs veh, AHCTF1 / RFU, TFRC / Fold change vs veh, TFRC / RFU, ZDHHC17 / Fold change vs veh, ZDHHC17 / RFU, NOM1 / Fold change vs veh, NOM1 / RFU, ARL8B / Fold change vs veh, ARL8B / RFU, ZBTB11 / Fold change vs veh, ZBTB11 / RFU, TAMM41 / Fold change vs veh, TAMM41 / RFU, KIAA1704 /// LOC100996395 / Fold change vs veh, KIAA1704 /// LOC100996395 / RFU, ING1 / Fold change vs veh, ING1 / RFU, TRMT61B / Fold change vs veh, TRMT61B / RFU, FUBP3 / Fold change vs veh, FUBP3 / RFU, TP53 / Fold change vs veh, TP53 / RFU, TNKS2 / Fold change vs veh, TNKS2 / RFU, ZFP14 / Fold change vs veh, ZFP14 / RFU, ACTR2 / Fold change vs veh, ACTR2 / RFU, PPP3R1 / Fold change vs veh, PPP3R1 / RFU, PIK3R1 / Fold change vs veh, PIK3R1 / RFU, HNRNPA1 / Fold change vs veh, HNRNPA1 / RFU, RNF170 / Fold change vs veh, RNF170 / RFU, ZNF28 / Fold change vs veh, ZNF28 / RFU, RNGTT / Fold change vs veh, RNGTT / RFU, OGT / Fold change vs veh, OGT / RFU, BRD1 / Fold change vs veh, BRD1 / RFU, MARS / Fold change vs veh, MARS / RFU, ZNF655 / Fold change vs veh, ZNF655 / RFU, FAHD1 / Fold change vs veh, FAHD1 / RFU, BDP1 / Fold change vs veh, BDP1 / RFU, LRRCC1 / Fold change vs veh, LRRCC1 / RFU, ARID1A / Fold change vs veh, ARID1A / RFU, ZNF146 / Fold change vs veh, ZNF146 / RFU, ZNF330 / Fold change vs veh, ZNF330 / RFU, GPN3 / Fold change vs veh, GPN3 / RFU, C9orf123 / Fold change vs veh, C9orf123 / RFU, N4BP2L2 / Fold change vs veh, N4BP2L2 / RFU, ARFIP1 / Fold change vs veh, ARFIP1 / RFU, FAM179B / Fold change vs veh, FAM179B / RFU, BCL10 / Fold change vs veh, BCL10 / RFU, UHRF1BP1L / Fold change vs veh, UHRF1BP1L / RFU, BET1 / Fold change vs veh, BET1 / RFU, CNOT2 / Fold change vs veh, CNOT2 / RFU, ZNF268 / Fold change vs veh, ZNF268 / Fold change vs veh, ZNF507 / RFU, DGCR2 / Fold change vs veh, DGCR2 / RFU, WDSUB1 / Fold change vs veh, WDSUB1 / Fold change vs veh, HSP90B1 /// MIR3652 / RFU, ADSS / Fold change vs veh, ADSS / RFU, GK / Fold change vs veh, GK / RFU, ZNF148 / Fold change vs veh, ZNF148 / RFU, TAF9 / Fold change vs veh, TAF9 / RFU, SLC1A5 / Fold change vs veh, SLC1A5 / RFU, SLMO2 / Fold change vs veh, SLMO2 / RFU, ABCC4 / Fold change vs veh, ABCC4 / RFU, LOC101060439 /// RAP1B / Fold change vs veh, LOC101060439 /// RAP1B / RFU, RFX7 / Fold change vs veh, RFX7 / RFU, GTPBP10 / Fold change vs veh, GTPBP10 / RFU, CNEP1R1 / Fold change vs veh, CNEP1R1 / RFU, BIVM-ERCC5 /// ERCC5 / Fold change vs veh, BIVM-ERCC5 /// ERCC5 / RFU, ILF3 / Fold change vs veh, ILF3 / RFU 11762660_at / Fold change /veh 11762660_at / RFU VCAN (11757783_s_at) / Fold change /veh VCAN (11757783_s_at) / RFU DDX43 (11728927_at) / Fold change /veh DDX43 (11728927_at) / RFU KRT8 (11758188_x_at) / Fold change /veh KRT8 (11758188_x_at) / RFU NKD1 (11759106_at) / Fold change /veh NKD1 (11759106_at) / RFU SRD5A1 (11742802_a_at) / Fold change /veh SRD5A1 (11742802_a_at) / RFU TPSAB1 /// TPSB2 (11721975_s_at) / Fold change /veh TPSAB1 /// TPSB2 (11721975_s_at) / RFU GSTM3 (11746129_a_at) / Fold change /veh GSTM3 (11746129_a_at) / RFU IL23R (11737362_x_at) / Fold change /veh IL23R (11737362_x_at) / RFU TMEM51 (11727254_a_at) / Fold change /veh TMEM51 (11727254_a_at) / RFU PIWIL2 (11732686_x_at) / Fold change /veh PIWIL2 (11732686_x_at) / RFU ORM1 (11744905_x_at) / Fold change /veh ORM1 (11744905_x_at) / RFU CCDC152 (11743942_at) / Fold change /veh CCDC152 (11743942_at) / RFU ECM1 (11717891_a_at) / Fold change /veh ECM1 (11717891_a_at) / RFU IL23R (11748794_a_at) / Fold change /veh IL23R (11748794_a_at) / RFU TNFAIP8L3 (11732012_x_at) / Fold change /veh TNFAIP8L3 (11732012_x_at) / RFU MBOAT4 (11741988_at) / Fold change /veh MBOAT4 (11741988_at) / RFU 11764193_at / Fold change /veh 11764193_at / RFU TMEM53 (11763286_at) / Fold change /veh TMEM53 (11763286_at) / RFU MAGEB2 (11727129_at) / Fold change /veh MAGEB2 (11727129_at) / RFU TMEM200A (11744735_a_at) / Fold change /veh TMEM200A (11744735_a_at) / RFU CCDC152 (11751479_a_at) / Fold change /veh CCDC152 (11751479_a_at) / RFU FAM211A (11726209_a_at) / Fold change /veh FAM211A (11726209_a_at) / RFU RGS16 (11746705_a_at) / Fold change /veh RGS16 (11746705_a_at) / RFU VCAN (11755009_s_at) / Fold change /veh VCAN (11755009_s_at) / RFU RHOB (11743442_s_at) / Fold change /veh RHOB (11743442_s_at) / RFU RGS16 (11720943_a_at) / Fold change /veh RGS16 (11720943_a_at) / RFU RGS16 (11720944_at) / Fold change /veh RGS16 (11720944_at) / RFU, VPS4B / Fold change vs veh, VPS4B / RFU, CREB1 / Fold change vs veh, CREB1 / RFU, DNAJC13 / Fold change vs veh, DNAJC13 / RFU, GNAQ / Fold change vs veh, GNAQ / RFU, CDK5R1 / Fold change vs veh, CDK5R1 / RFU, ZRANB3 / Fold change vs veh, ZRANB3 / RFU, CUL4A / Fold change vs veh, CUL4A / RFU, CCNY / Fold change vs veh, CCNY / RFU, UFL1 / Fold change vs veh, UFL1 / RFU, COG3 / Fold change vs veh, COG3 / RFU, DIAPH2 / Fold change vs veh, DIAPH2 / RFU, SKA2 / Fold change vs veh, SKA2 / RFU, AFF3 / Fold change vs veh, AFF3 / RFU, LMF1 / Fold change vs veh, LMF1 / RFU, IPO11 / Fold change vs veh, IPO11 / RFU, DFFB / Fold change vs veh, DFFB / RFU, FOXP1 / Fold change vs veh, FOXP1 / RFU, CARD8 / Fold change vs veh, CARD8 / RFU, STRN3 / Fold change vs veh, STRN3 / RFU, ADK / Fold change vs veh, ADK / RFU, RASSF2 / Fold change vs veh, RASSF2 / RFU, WIPF1 / Fold change vs veh, WIPF1 / RFU, LARP1B / Fold change vs veh, LARP1B / RFU, RASA1 / Fold change vs veh, RASA1 / RFU, RB1 / Fold change vs veh, RB1 / RFU, PPFIA1 / Fold change vs veh, PPFIA1 / RFU, MAT2A / Fold change vs veh, MAT2A / RFU, CCT5 / Fold change vs veh, CCT5 / RFU, WDR92 / Fold change vs veh, WDR92 / RFU, CUX1 / Fold change vs veh, CUX1 / RFU, TTC7A / Fold change vs veh, TTC7A / RFU, TMEM135 / Fold change vs veh, TMEM135 / RFU, DEPTOR / Fold change vs veh, DEPTOR / RFU, CPM / Fold change vs veh, CPM / RFU, DNAJB6 / Fold change vs veh, DNAJB6 / RFU, CACNA2D3 / Fold change vs veh, CACNA2D3 / RFU, DTX4 / Fold change vs veh, DTX4 / RFU, TFCP2 / Fold change vs veh, TFCP2 / RFU, GMCL1 /// GMCL1P1 / Fold change vs veh, GMCL1 /// GMCL1P1 / RFU, AEBP2 / Fold change vs veh, AEBP2 / RFU, SNHG1 /// SNORD22 /// SNORD25 /// SNORD26 /// SNORD27 /// SNORD28 /// SNORD29 /// SNORD31 / Fold change vs veh, SNHG1 /// SNORD22 /// SNORD25 /// SNORD26 /// SNORD27 /// SNORD28 /// SNORD29 /// SNORD31 / Fold change (Aza/veh), C12orf56 (ProbeSet 11735607_a_at) / Fold change (ACY-1035/veh), C12orf56 (ProbeSet 11735607_a_at) / Fold change (Aza/veh), FGFR1OP (ProbeSet 11751329_s_at) / Fold change (ACY-1035/veh), FGFR1OP (ProbeSet 11751329_s_at) / Fold change (Aza/veh), VPS36 (ProbeSet 11739960_a_at) / Fold change (ACY-1035/veh), VPS36 (ProbeSet 11739960_a_at) / RFU SYPL1 (11715823_x_at) / Fold change /veh SYPL1 (11715823_x_at) / RFU IGFBP7 (11715501_s_at) / Fold change /veh IGFBP7 (11715501_s_at) / RFU REEP3 (11722064_at) / Fold change /veh REEP3 (11722064_at) / RFU IGLL1 (11728026_x_at) / Fold change /veh IGLL1 (11728026_x_at): dose or concentration left out as unconfirmed
Conditions: ProbeSet 11732277_a_at; LIST D

`Nc1ccc(-c2cccs2)cc1NC(=O)c1ccc2c(c1)cc(C1CC1)n2CCN1CCOCC1` [ACY-1035] was tested, and the “RFU, FOXP1” value was 575.26 RFU.
